Assay results reported in PubChem BioAssay (NCI).
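Five concentrations, 48 hours, 96-well plates. The concentration for full growth arrest is given as TGI.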

How the values were obtained:
Test in all cases: NCI tumour cell line growth inhibition, 48 h
UACC-257 melanoma = test system: UACC-257 melanoma
NCI-H23 lung = test system: NCI-H23 lung
SK-OV-3 ovarian = test system: SK-OV-3 ovarian
NCI-H226 lung = test system: NCI-H226 lung
SK-MEL-5 melanoma = test system: SK-MEL-5 melanoma
IGROV1 ovarian = test system: IGROV1 ovarian
NCI/ADR-RES ovarian = test system: NCI/ADR-RES ovarian
EKVX NSCLC = test system: EKVX NSCLC
DU-145 prostate = test system: DU-145 prostate
MCF7 breast = test system: MCF7 breast
HOP-62 NSCLC = test system: HOP-62 NSCLC
K-562 leukemia = test system: K-562 leukemia
MDA-MB-435 = test system: MDA-MB-435
SK-MEL-2 melanoma = test system: SK-MEL-2 melanoma
NCI-H460 lung = test system: NCI-H460 lung
BT-549 breast = test system: BT-549 breast
SK-MEL-28 melanoma = test system: SK-MEL-28 melanoma
SF-295 CNS = test system: SF-295 CNS
MALME-3M melanoma = test system: MALME-3M melanoma

Compound	TGI (UACC-257 melanoma)	TGI (NCI-H23 lung)	TGI (SK-OV-3 ovarian)	TGI (NCI-H226 lung)	TGI (SK-MEL-5 melanoma)	TGI (IGROV1 ovarian)	TGI (NCI/ADR-RES ovarian)	TGI (EKVX NSCLC)	TGI (DU-145 prostate)	TGI (MCF7 breast)	TGI (HOP-62 NSCLC)	TGI (K-562 leukemia)	TGI (MDA-MB-435)	TGI (SK-MEL-2 melanoma)	TGI (NCI-H460 lung)	TGI (BT-549 breast)	TGI (SK-MEL-28 melanoma)	TGI (SF-295 CNS)	TGI (MALME-3M melanoma)
Cn1c(=O)c2c(=O)cc(N)[nH]c2n(C)c1=O	> 100 µM	> 100 µM	> 100 µM	> 100 µM	> 100 µM	> 100 µM	> 100 µM	> 100 µM	> 100 µM	> 100 µM	> 100 µM	> 100 µM	> 100 µM	> 100 µM	> 100 µM	> 100 µM	> 100 µM	> 100 µM	> 100 µM
CN1CCc2c(sc3ncn(Nc4ccc(F)cc4)c(=N)c23)C1	> 100 µM	> 100 µM	> 100 µM	> 100 µM	> 100 µM	> 100 µM	> 100 µM	> 100 µM	> 100 µM	> 100 µM	> 100 µM	> 100 µM	> 100 µM	> 100 µM	> 100 µM	> 100 µM	> 100 µM	> 100 µM	> 100 µM
c1cc(CSc2ncnc3nc[nH]c23)ccn1	> 100 µM	> 100 µM	> 100 µM	> 100 µM	> 100 µM	> 100 µM	> 100 µM	> 100 µM	> 100 µM	> 100 µM	> 100 µM	> 100 µM	> 100 µM	> 100 µM	> 100 µM	> 100 µM	> 100 µM	> 100 µM	> 100 µM
O=CC1OC(=O)c2cc(O)c(O)c(O)c2-c2c(cc(O)c(O)c2O)C(=O)OC1C1OC(=O)c2cc(O)c(O)c(O)c2-c2c(O)c(O)c3oc(=O)c4c(c(O)c(O)c5oc(=O)c2c3c54)-c2c(cc(O)c(O)c2O)C(=O)OCC1O (stereo not given)	> 100 µM	> 100 µM	> 100 µM	> 100 µM	> 100 µM	> 100 µM	> 100 µM	> 100 µM	> 100 µM	40.6 µM	> 100 µM	71.8 µM	46.4 µM	> 100 µM	> 100 µM	> 100 µM	> 100 µM	89.4 µM	> 100 µM
O=C(/C=C/c1cccc(Br)c1)N1CCN(CCOC(c2ccccc2)c2ccccc2)CC1	> 100 µM	> 100 µM	> 100 µM	> 100 µM	30.7 µM	> 100 µM	> 100 µM	> 100 µM	> 100 µM	> 100 µM	> 100 µM	55 µM	> 100 µM	> 100 µM	> 100 µM	84.2 µM	> 100 µM	> 100 µM	> 100 µM
Cc1cccc(N=N/C(=N\NC(=O)c2cc(Cl)ccc2O)c2ccc(N(CCC#N)CCC#N)cc2C)c1	97.6 µM	> 100 µM	> 100 µM	> 100 µM	> 100 µM	43.6 µM	> 100 µM	> 100 µM	> 100 µM	> 100 µM	> 100 µM	67.3 µM	> 100 µM	> 100 µM	79.7 µM	> 100 µM	> 100 µM	> 100 µM	94.1 µM
C[C@@H]1CC[C@@]2(C)[C@H](C)/C(=C\COC(=O)/C=C/c3ccc(O)c(O)c3)CC[C@@]12C	24.1 µM	23.1 µM	26.4 µM	20.8 µM	17 µM	22.6 µM	23.5 µM	30.8 µM	23.4 µM	15.2 µM	28.8 µM	17.8 µM	11.6 µM	25.4 µM	13.5 µM	29 µM	24.5 µM	23.2 µM	27.8 µM
Cc1cc(=O)oc2c(C)c3oc(CBr)cc3cc12	52.5 µM	40 µM	75.4 µM	34 µM	26 µM	33.3 µM	58.1 µM	> 100 µM	> 100 µM	> 100 µM	33.6 µM	46.7 µM	37.7 µM	54 µM	36.4 µM	33.5 µM	43.6 µM	34.3 µM	40.3 µM
Cn1c(=S)[nH]c(N)c(Cc2ccccc2)c1=O	> 100 µM	> 100 µM	> 100 µM	> 100 µM	> 100 µM	68.4 µM	> 100 µM	> 100 µM	> 100 µM	> 100 µM	> 100 µM	> 100 µM	> 100 µM	> 100 µM	> 100 µM	> 100 µM	> 100 µM	> 100 µM	> 100 µM
COc1ccc(/C=C/C(=O)CCN2CCN(CCC(=O)/C=C/c3ccc(OC)cc3)CC2)cc1	29.1 µM	30.1 µM	24.1 µM	52.8 µM	32 µM	25.9 µM	96 µM	28.2 µM	71.1 µM	13.6 µM	49.7 µM	37.9 µM	24.6 µM	42 µM	23.1 µM	39.9 µM	28.4 µM	20.8 µM	35.9 µM
O=C(NC(OCc1ccccc1)(C(F)(F)F)C(F)(F)F)OCc1ccccc1	27.3 µM	25.8 µM	31.3 µM	27.7 µM	29.3 µM	28.6 µM	26.3 µM	28.7 µM	30.3 µM	30.1 µM	28.4 µM	36.8 µM	31 µM	28.7 µM	29.6 µM	28.7 µM	31.5 µM	31.4 µM	31.9 µM
O=C1c2ccccc2C(=O)N1NC1=NCCN1	> 100 µM	> 100 µM	> 100 µM	> 100 µM	> 100 µM	> 100 µM	> 100 µM	> 100 µM	> 100 µM	> 100 µM	> 100 µM	> 100 µM	> 100 µM	> 100 µM	> 100 µM	> 100 µM	> 100 µM	> 100 µM	> 100 µM
COc1ccc2nc3cc(Cl)ccc3c(NCCCCCC(=O)NC(COc3ccc4ccc5cccnc5c4n3)COc3ccc4ccc5cccnc5c4n3)c2c1	42.8 µM	48.6 µM	> 100 µM	35.1 µM	30.4 µM	37.4 µM	73.7 µM	58 µM	23.6 µM	15.1 µM	> 100 µM	26.3 µM	> 100 µM	45.1 µM	19.1 µM	3.55 µM	49 µM	> 100 µM	> 100 µM
COC(=O)C1Cc2cc3c(cc2C1)CCC3	> 100 µM	> 100 µM	> 100 µM	> 100 µM	> 100 µM	> 100 µM	> 100 µM	> 100 µM	> 100 µM	> 100 µM	> 100 µM	> 100 µM	> 100 µM	> 100 µM	> 100 µM	> 100 µM	> 100 µM	> 100 µM	> 100 µM
c1ccc(/C(=N/Nc2ccccn2)c2cccnn2)cc1	> 100 µM	> 50.3 µM	> 47.6 µM	11.2 µM	52.3 µM	18 µM	13.2 µM	16.7 µM	> 100 µM	> 93.4 µM	> 63.8 µM	> 100 µM	> 100 µM	> 100 µM	> 100 µM	> 100 µM	> 100 µM	29.7 µM	> 67.9 µM
